According to patent US10856562B2, “Flavor composition and edible compositions containing same” (MARS, INCORPORATED, priority 2013, dated 2020):
Square brackets hold non-standard residues; d marks the D form. Ends that are not written are not given here. pGlu = O=C1CC[C@@H](C(=O)O)N1

Test system: panelists
Test: Attribute perception scores of flavor enhancers in solution (Example 6)
Format: in vivo, human
Design: key to Metallic / Numbing / Atringent / Salt / Sweet / Sour / Bitter / Umami / Sour, mean evaluation score in solution / Numbing, mean evaluation score in solution / Astringent / Umami FF: 15-point intensity scale, 0 = none, 15 = very strong
Details: for Astringent / Bitter / Flinty/Mineral / Metallic / Numbing / Salt / Sour / Sweet / Umami / Umami FF / Atringent / Mineral/Flinty / Umami/brothy: solution
Description: Descriptive attributes (e.g., taste, flavor and chemical feeling factors) of three use levels of pGlu-Cys (FE-35), pGlu-Cys-Gly (FE-36), pGlu-Cys-Cys (FE-37), pGlu-Cys-Val (FE-38) and pGlu-Val-Cys (UE-30) flavor composition peptides were determined. The three use levels were as follows: 1.0 ppb, 10.0 ppb and 100.0 ppb.
Data was collected for the attributes of the product in-mouth for the use levels according to the following protocol: • The samples were analyzed for flavor by six to nine members of a panel, trained and experienced in flavor evaluation using the Spectrum™ method. Samples were evaluated across multiple panel sessions. • The strength of each attribute was rated on a 15-point scale, where 0=none and 15=very strong. • This scale incorporates the ability to use tenths of a point and therefore has the potential of 150 scale differentiations. • The scale may be expanded beyond 15 points to include extreme ratings if necessary.
A summary of the concentrations of NaCl, water and flavor composition peptides in the solution samples is described in table 24.
The panelists evaluated each sample for the attributes described by table 25.

[1] = 10.0 ppb, mean evaluation score
[2] = 100.0 ppb, mean evaluation score
[3] = Concentration 1, MAX, 15-point scale
[4] = Concentration 1, MEAN, 15-point scale
[5] = Concentration 1, MIN, 15-point scale
[6] = Concentration 10, MAX, 15-point scale
[7] = Concentration 10, MEAN, 15-point scale
[8] = Concentration 10, MIN, 15-point scale
[9] = Concentration 100, MAX, 15-point scale
[10] = Concentration 100, MEAN, 15-point scale
[11] = Concentration 100, MIN, 15-point scale

Q: “[pGlu]-Cys-Cys (cysteine pairing not given here) [FE-37]” was tested. Which “Mineral/Flinty aromatic in solution as the concentration increases” value (1.0 to 100 ppb) did it give?
A: Its value is “increase very slightly”.

Q: What about the “Salt perception level in solution as the concentration increases” value (1.0 to 100 ppb) of the same substance?
A: Its value is “shows no distinct pattern”.

Q: And the “Umami aromatic in solution as the concentration increases” value (1.0 to 100 ppb)?
A: Its value is “increase very slightly”.

Q: What about the “Umami feeling factor in solution as the concentration increases” value (1.0 to 100 ppb) of the same substance?
A: The value was “increases very slightly by 100 ppb”.

Q: And the “Umami feeling factor in solution as the concentration increases” value (1.0 to 100 ppb, listed as FE 37)?
A: The value was “increase very slightly”.

Q: What about the Astringent (1.0 ppb, mean evaluation score) of the same substance?
A: The Astringent was 0.0.

Q: And the Bitter (1.0 ppb, mean evaluation score)?
A: Its Bitter is 0.0.

Q: And the Flinty/Mineral (1.0 ppb, mean evaluation score)?
A: Its Flinty/Mineral is 0.7.

Q: What about the Metallic (1.0 ppb, mean evaluation score) of the same substance?
A: Its Metallic is 0.0.

Q: What about the Numbing (1.0 ppb, mean evaluation score) of the same substance?
A: Its Numbing is 0.0.

Q: What about the Salt (1.0 ppb, mean evaluation score) of the same substance?
A: The Salt was 2.4.

Q: And the Sour (1.0 ppb, mean evaluation score)?
A: The Sour was 0.0.

Q: And the Sweet (1.0 ppb, mean evaluation score)?
A: The Sweet was 0.0.

Q: What about the Umami (1.0 ppb, mean evaluation score) of the same substance?
A: Its Umami is 0.1.

Q: And the “Umami FF” value (1.0 ppb, mean evaluation score)?
A: Its value is 1.3.

Q: And the Astringent [1]?
A: Its Astringent is 0.0.

Q: What about the Bitter [1] of the same substance?
A: Its Bitter is 0.0.

Q: What about the Flinty/Mineral [1] of the same substance?
A: The Flinty/Mineral was 0.8.

Q: What about the Metallic [1] of the same substance?
A: The Metallic was 0.0.

Q: What about the Numbing [1] of the same substance?
A: The Numbing was 0.0.

Q: And the Salt [1]?
A: Its Salt is 3.0.

Q: And the Sour [1]?
A: Its Sour is 0.0.

Q: And the Sweet [1]?
A: The Sweet was 0.1.

Q: And the Umami [1]?
A: Its Umami is 0.2.

Q: What about the “Umami FF” value [1] of the same substance?
A: The value was 1.3.

Q: What about the Astringent [2] of the same substance?
A: The Astringent was 0.0.

Q: And the Bitter [2]?
A: Its Bitter is 0.0.

Q: What about the Flinty/Mineral [2] of the same substance?
A: Its Flinty/Mineral is 0.9.

Q: What about the Metallic [2] of the same substance?
A: The Metallic was 0.1.

Q: And the Numbing [2]?
A: Its Numbing is 0.0.

Q: And the Salt [2]?
A: Its Salt is 2.8.

Q: And the Sour [2]?
A: The Sour was 0.0.

Q: What about the Sweet [2] of the same substance?
A: Its Sweet is 0.2.

Q: And the Umami [2]?
A: The Umami was 0.5.

Q: And the “Umami FF” value [2]?
A: The value was 1.6.

Q: What about the Atringent [3] of the same substance?
A: The Atringent was 0.0.

Q: And the Bitter [3]?
A: Its Bitter is 00.

Q: What about the Metallic [3] of the same substance?
A: Its Metallic is 0.0.

Q: What about the Mineral/Flinty [3] of the same substance?
A: Its Mineral/Flinty is 1.5.

Q: What about the Numbing [3] of the same substance?
A: Its Numbing is 0.0.

Q: What about the Salt [3] of the same substance?
A: Its Salt is 2.8.

Q: What about the Sour [3] of the same substance?
A: Its Sour is 0.0.

Q: What about the Sweet [3] of the same substance?
A: Its Sweet is 0.0.

Q: What about the Umami [3] of the same substance?
A: The Umami was 2.0.

Q: And the Umami/brothy [3]?
A: The Umami/brothy was 0.8.

Q: What about the Atringent [4] of the same substance?
A: Its Atringent is 0.0.

Q: And the Bitter [4]?
A: Its Bitter is 0.0.

Q: What about the Metallic [4] of the same substance?
A: Its Metallic is 0.0.

Q: What about the Mineral/Flinty [4] of the same substance?
A: The Mineral/Flinty was 0.7.

Q: And the Numbing [4]?
A: The Numbing was 0.0.

Q: What about the Salt [4] of the same substance?
A: The Salt was 2.4.

Q: And the Sour [4]?
A: The Sour was 0.0.

Q: What about the Sweet [4] of the same substance?
A: Its Sweet is 0.0.

Q: And the Umami [4]?
A: Its Umami is 1.3.

Q: What about the Umami/brothy [4] of the same substance?
A: Its Umami/brothy is 0.1.

Q: What about the Atringent [5] of the same substance?
A: Its Atringent is 0.0.

Q: What about the Bitter [5] of the same substance?
A: Its Bitter is 0.0.

Q: What about the Metallic [5] of the same substance?
A: The Metallic was 0.0.

Q: And the Mineral/Flinty [5]?
A: The Mineral/Flinty was 0.0.

Q: And the Numbing [5]?
A: The Numbing was 0.0.

Q: What about the Salt [5] of the same substance?
A: The Salt was 2.0.

Q: What about the Sour [5] of the same substance?
A: Its Sour is 0.0.

Q: What about the Sweet [5] of the same substance?
A: Its Sweet is 0.0.

Q: And the Umami [5]?
A: Its Umami is 0.0.

Q: What about the Umami/brothy [5] of the same substance?
A: Its Umami/brothy is 0.0.

Q: And the Atringent [6]?
A: Its Atringent is 0.0.

Q: And the Bitter [6]?
A: The Bitter was 0.0.

Q: And the Metallic [6]?
A: The Metallic was 0.0.

Q: And the Mineral/Flinty [6]?
A: Its Mineral/Flinty is 1.0.

Q: What about the Numbing [6] of the same substance?
A: The Numbing was 0.0.

Q: What about the Salt [6] of the same substance?
A: The Salt was 3.5.

Q: What about the Sour [6] of the same substance?
A: The Sour was 0.0.

Q: And the Sweet [6]?
A: Its Sweet is 0.8.

Q: And the Umami [6]?
A: The Umami was 2.5.

Q: And the Umami/brothy [6]?
A: The Umami/brothy was 1.0.

Q: And the Atringent [7]?
A: The Atringent was 0.0.

Q: What about the Bitter [7] of the same substance?
A: The Bitter was 0.0.

Q: What about the Metallic [7] of the same substance?
A: Its Metallic is 0.0.

Q: What about the Mineral/Flinty [7] of the same substance?
A: Its Mineral/Flinty is 0.8.

Q: And the Numbing [7]?
A: The Numbing was 0.0.

Q: And the Salt [7]?
A: Its Salt is 3.0.

Q: What about the Sour [7] of the same substance?
A: The Sour was 0.0.

Q: And the Sweet [7]?
A: The Sweet was 0.1.

Q: What about the Umami [7] of the same substance?
A: Its Umami is 1.3.

Q: What about the Umami/brothy [7] of the same substance?
A: The Umami/brothy was 0.2.

Q: And the Atringent [8]?
A: The Atringent was 0.0.

Q: What about the Bitter [8] of the same substance?
A: The Bitter was 0.0.

Q: What about the Metallic [8] of the same substance?
A: Its Metallic is 0.0.

Q: And the Mineral/Flinty [8]?
A: Its Mineral/Flinty is 0.0.

Q: And the Numbing [8]?
A: The Numbing was 0.0.

Q: What about the Salt [8] of the same substance?
A: Its Salt is 2.5.

Q: What about the Sour [8] of the same substance?
A: The Sour was 0.0.

Q: And the Sweet [8]?
A: Its Sweet is 0.0.

Q: What about the Umami [8] of the same substance?
A: Its Umami is 0.0.

Q: And the Umami/brothy [8]?
A: The Umami/brothy was 0.0.

Q: What about the Atringent [9] of the same substance?
A: The Atringent was 0.0.

Q: What about the Bitter [9] of the same substance?
A: The Bitter was 0.0.

Q: And the Metallic [9]?
A: Its Metallic is 0.8.

Q: What about the Mineral/Flinty [9] of the same substance?
A: Its Mineral/Flinty is 1.5.

Q: And the Numbing [9]?
A: The Numbing was 0.0.

Q: And the Salt [9]?
A: The Salt was 4.5.

Q: And the Sour [9]?
A: The Sour was 0.0.

Q: What about the Sweet [9] of the same substance?
A: The Sweet was 1.0.

Q: And the Umami [9]?
A: Its Umami is 3.0.

Q: What about the Umami/brothy [9] of the same substance?
A: Its Umami/brothy is 1.0.

Q: And the Atringent [10]?
A: The Atringent was 0.0.

Q: And the Bitter [10]?
A: Its Bitter is 0.0.

Q: What about the Metallic [10] of the same substance?
A: Its Metallic is 0.1.

Q: What about the Mineral/Flinty [10] of the same substance?
A: The Mineral/Flinty was 0.9.

Q: What about the Numbing [10] of the same substance?
A: The Numbing was 0.0.

Q: And the Salt [10]?
A: The Salt was 2.8.

Q: And the Sour [10]?
A: The Sour was 0.0.

Q: What about the Sweet [10] of the same substance?
A: The Sweet was 0.2.

Q: And the Umami [10]?
A: The Umami was 1.6.

Q: What about the Umami/brothy [10] of the same substance?
A: Its Umami/brothy is 0.5.

Q: And the Atringent [11]?
A: The Atringent was 0.0.

Q: And the Bitter [11]?
A: The Bitter was 0.0.

Q: What about the Metallic [11] of the same substance?
A: The Metallic was 0.0.

Q: What about the Mineral/Flinty [11] of the same substance?
A: The Mineral/Flinty was 0.0.

Q: And the Numbing [11]?
A: The Numbing was 0.0.

Q: And the Salt [11]?
A: Its Salt is 1.5.

Q: What about the Sour [11] of the same substance?
A: The Sour was 0.0.

Q: What about the Sweet [11] of the same substance?
A: The Sweet was 0.0.

Q: And the Umami [11]?
A: Its Umami is 0.0.

Q: And the Umami/brothy [11]?
A: Its Umami/brothy is 0.0.
